# Type: physicochemical
# Description: . An exemplary synthesis is the synthesis of 2-methyl-3-nitroaniline diazonium ion (2). In this embodiment, 2-methyl-3-nitroaniline (1) is converted to the diazonium ion (2) by reaction with sodium nitrite in an acidic aqueous medium. The reaction is illustrated in Scheme I below. The 2-methyl-3-nitroaniline diazonium ion (2) is capable of reacting with bilirubin to form a detectable product, and is thus useful in assays for detecting and quantitating bilirubin in a sample. […]
smiles,measurement,value
Cc1c(N)cccc1[N+](=O)[O-] [2-methyl-3-nitroaniline],solubility in water or other aqueous systems (in words),good solubility in aqueous systems
